Values joined by “and” are separate entries in the source; they are usually repeats but may differ in a detail not shown here. Equal values may be shown once.
Legend:
[1] = biological target: Rat2 fibroblasts stably transformed with v-Src/Hu c-Src fusion gene (Homo sapiens, UniProt P12931, cells depend on it, form not given); experiment: Anchorage Independent Src-transformed Fibroblast Proliferation Assay; assay type: cell-based, Rat; details: suspension growth, MTS reagent on Day 5; read-out: anch-indep src-tx fib IC50
Rat2 fibroblasts stably transformed with v-Src/Hu c-Src fusion gene, sequence (P12931 whole entry, change not shown, the tested form may be a part): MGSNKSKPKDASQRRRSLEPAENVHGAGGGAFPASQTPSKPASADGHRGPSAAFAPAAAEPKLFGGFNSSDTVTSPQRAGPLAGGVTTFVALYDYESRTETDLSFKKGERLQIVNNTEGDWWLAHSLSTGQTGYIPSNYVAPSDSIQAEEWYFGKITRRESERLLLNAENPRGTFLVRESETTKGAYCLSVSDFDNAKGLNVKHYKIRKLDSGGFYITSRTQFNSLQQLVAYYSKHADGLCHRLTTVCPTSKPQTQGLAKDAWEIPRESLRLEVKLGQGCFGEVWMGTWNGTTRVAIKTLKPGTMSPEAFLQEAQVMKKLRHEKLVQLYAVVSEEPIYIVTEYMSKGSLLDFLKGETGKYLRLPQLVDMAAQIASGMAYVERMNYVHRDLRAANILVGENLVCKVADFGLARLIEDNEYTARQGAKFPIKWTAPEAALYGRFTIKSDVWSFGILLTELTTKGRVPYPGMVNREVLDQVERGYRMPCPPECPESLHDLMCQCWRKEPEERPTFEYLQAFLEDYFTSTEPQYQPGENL
Protocol: Anchorage Independent Src-transformed Fibroblast Proliferation Assay
Rat2 fibroblasts stably transformed with a plasmid containing a CMV promotor controlled v-Src/Hu c-Src fusion gene in which the catalytic domain of human c-Src was inserted in place of the v-Src catalytic domain in the v-Src gene are used for the measurement of src dependent suspension growth. […] Multiple entries for a given compound indicate that it was tested multiple times.

Compound | melting point | GI50 [1]
N#Cc1cnc2cc(C=CCCCN3CCOCC3)ccc2c1Nc1ccc(Cl)cc1Cl (mixture of isomers) [Example 12, 4-(2,4-Dichloroanilino)-7-[(E/Z)-5-(4-morpholinyl)-1-pentenyl]-3-quinoline-carbonitrile] | 70 to 72 °C | > 10000 nM
COc1cc(Nc2c(C#N)cnc3cc(-c4ccc(C=O)o4)ccc23)c(Cl)cc1Cl [Example 6, 4-(2,4-Dichloro-5-methoxyanilino)-7-(5-formyl-2-furyl)-3-quinolinecarbonitrile] | > 250 °C | 1600 nM
COc1cc(Nc2c(C#N)cnc3cc(-c4ccc(C5OCCO5)s4)ccc23)c(Cl)cc1Cl [Example 51, 4-(2,4-dichloro-5-methoxyanilino)-7-[5-(1,3-dioxolan-2-yl)-2-thienyl]-3-quinolinecarbonitrile] | 174 to 177 °C (dec.) | 420 nM
COc1ccc(Cl)c(Nc2c(C#N)cnc3cc(-c4ccc(CN5CCOCC5)cc4)ccc23)c1 [Example 236, 4-(2-Chloro-5-methoxyanilino)-7-[4-(4-morpholinylmethyl)phenyl]-3-quinolinecarbonitrile] | 160 to 163 °C | 570 nM
COc1cc(Nc2c(C#N)cnc3cc(-c4ccc(CNCCS(=O)(=O)c5ccccc5)o4)ccc23)c(Cl)cc1Cl [Example 58, 4-(2,4-Dichloro-5-methoxyanilino)-7-[5-({[2-(phenylsulfonyl)ethyl]amino}methyl)-2-furyl]-3-quinolinecarbonitrile] | 123 to 128 °C | 5100 nM
COc1cc(Nc2c(C#N)cnc3cc(-c4ccc(CNCCc5ccccn5)cc4)ccc23)c(Cl)cc1Cl [Example 229, 4-(2,4-Dichloro-5-methoxyanilino)-7-[4-({[2-(2-pyridinyl)ethyl]amino}-methyl)phenyl]-3-quinolinecarbonitrile] | 256 to 258 °C | 450 nM
COc1cc(Nc2c(C#N)cnc3cc(-c4ccc(CNCCS(C)(=O)=O)n4C)ccc23)c(Cl)cc1Cl [Example 73, 4-(2,4-dichloro-5-methoxyanilino)-7-[1-methyl-5-({[2-(methylsulfonyl)ethyl]amino}-methyl)-1H-pyrrol-2-yl]-3-quinolinecarbonitrile] | 160 to 164 °C | > 10000 nM
COc1cc(Nc2c(C#N)cnc3cc(-c4ccc(CN5CCCCC5C(=O)O)cc4)ccc23)c(Cl)cc1Cl (stereo not shown) [Example 147, 1-{4-[3-Cyano-4-(2,4-dichloro-5-methoxyanilino)-7-quinolinyl]benzyl}-2-piperidinecarboxylic acid] | 230 °C (dec.) | 4600 nM
COc1cc(Nc2c(C#N)cnc3cc(-c4cccc5ccccc45)ccc23)c(Cl)cc1Cl [Example 116, 4-(2,4-Dichloro-5-methoxyanilino)-7-(1-naphthyl)-3-quinolinecarbonitrile] | 192 to 193 °C | > 10000 nM
CCOC(=O)C1CCCCN1Cc1ccc(-c2ccc3c(Nc4cc(OC)c(Cl)cc4Cl)c(C#N)cnc3c2)cc1 (stereo not shown) [Example 145, Ethyl 1-{4-[3-cyano-4-(2,4-dichloro-5-methoxyanilino)-7-quinolinyl]benzyl}-2-piperidinecarboxylate] | 78 to 80 °C | > 10000 nM
COc1cc(Nc2c(C#N)cnc3cc(-c4ccc(CCl)cc4)ccc23)c(Cl)cc1Cl [Example 102, 7-[4-(Chloromethyl)phenyl]-4-(2,4-dichloro-5-methoxyanilino)-3-quinolinecarbonitrile] | 236 to 239 °C | 7500 nM
COc1cc(Nc2c(C#N)cnc3cc(-c4cc(CN5CCOCC5)c(CN5CCOCC5)s4)ccc23)c(Cl)cc1Cl [Example 20, 7-[4,5-Bis(4-morpholinylmethyl)-2-thienyl]-4-(2,4-dichloro-5-methoxyanilino)-3-quinolinecarbonitrile] | 118 to 125 °C | 40 nM and 30 nM
COc1cc(Nc2c(C#N)cnc3cc(-c4ccc(Oc5ccc(CN6CCOCC6)cc5)nc4)ccc23)c(Cl)cc1Cl [Example 193, 4-(2,4-Dichloro-5-methoxyanilino)-7-{6-[4-(4-morpholinylmethyl)phenoxy]-3-pyridinyl)-3-quinolinecarbonitrile] | 176 to 178 °C | > 10000 nM
COc1cc(Nc2c(C#N)cnc3cc(-c4ccc(C=O)n4C)ccc23)c(Cl)cc1Cl [Example 69, 4-(2,4-Dichloro-5-methoxyanilino)-7-(5-formyl-1-methyl-1H-pyrrol-2-yl)-3-quinolinecarbonitrile] | 200 °C (dec.) | > 10000 nM
N#Cc1cnc2cc(C#CCCCN3CCOCC3)ccc2c1Nc1ccc(Cl)cc1Cl [Example 11, 4-(2,4-Dichloroanilino)-7-[5-(4-morpholinyl)-1-pentynyl]-3-quinolinecarbonitrile] | 131 to 133 °C | > 10000 nM
COc1cc(Nc2c(C#N)cnc3cc(/C=C/C(=O)OC(C)(C)C)ccc23)c(Cl)cc1Cl [Example 142, (E)-tert-Butyl 3-[3-cyano-4-(2,4-dichloro-5-methoxyanilino)-7-quinolinyl]-2-propenoate] | 203 to 204 °C | > 10000 nM

Compound | melting point | GI50 [1]
COc1cc(Nc2c(C#N)cnc3cc(C#CCCl)ccc23)c(Cl)cc1Cl [Example 152, 7-(3-Chloro-1-propynyl)-4-[(2,4-dichloro-5-methoxyphenyl)amino]-3-quinolinecarbonitrile] | 215 to 217 °C | 4800 nM and 3800 nM
COc1cc(Nc2c(C#N)cnc3cc(-c4ccc(CN5CCC(C(=O)O)CC5)cc4)ccc23)c(Cl)cc1Cl [Example 237, 1-{4-[3-Cyano-4-(2,4-dichloro-5-methoxyanilino)-7-quinolinyl]benzyl}-4-piperidinecarboxylic acid] | 248 °C | 490 nM and 520 nM and 410 nM
COc1cc(Nc2c(C#N)cnc3cc(-c4cc(CN5CCOCC5)c(CN5CCOCC5)s4)c(OC)cc23)c(Cl)cc1Cl [Example 82, 7-[4,5-Bis(4-morpholinylmethyl)-2-thienyl]-4-(2,4-dichloro-5-methoxyanilino)-6-methoxy-3-quinolinecarbonitrile] | 120 to 124 °C | 50 nM
COc1cc(Nc2c(C#N)cnc3cc(-c4csc(CN5CCOCC5)c4)ccc23)c(Cl)cc1C [Example 80, 4-(2-chloro-5-methoxy-4-methylanilino)-7-[5-(4-morpholinylmethyl)-3-thienyl]-3-quinolinecarbonitrile] | 168 to 170 °C | 80 nM
COc1ccc(C#Cc2ccc3c(Nc4cc(OC)c(Cl)cc4Cl)c(C#N)cnc3c2)cc1 [Example 90, 4-(2,4-dichloro-5-methoxyanilino)-7-[2-(4-methoxyphenyl)ethynyl]-3-quinolinecarbonitrile] | 225 to 226 °C | > 10000 nM
COc1cc(Nc2c(C#N)cnc3cc(/C=C/c4ccccc4)ccc23)c(Cl)cc1Cl [Example 139, 4-(2,4-Dichloro-5-methoxyanilino)-7-[(E)-2-phenylethenyl]-3-quinolinecarbonitrile] |  | > 10000 nM
COc1cc(Nc2c(C#N)cnc3cc(-c4ccc(CCN5CCOCC5)cc4)ccc23)c(Cl)cc1Cl [Example 27, 4-(2,4-Dichloro-5-methoxyanilino)-7-{4-[2-(4-morpholinyl)ethyl]phenyl}-3-quinolinecarbonitrile] |  | 1020 nM
COc1cc(Nc2c(C#N)cnc3cc(-c4cscc4CN4CCOCC4)ccc23)c(Cl)cc1Cl [Example 65, 4-(2,4-Dichloro-5-methoxyanilino)-7-[4-(4-morpholinylmethyl)-3-thienyl]-3-quinolinecarbonitrile] |  | > 10000 nM
COc1cc(Nc2c(C#N)cnc3cc(-c4ccc(CN5CCOCC5)cc4)c(OC)cc23)c(Cl)cc1Cl [Example 37, 4-(2,4-Dichloro-5-methoxyanilino)-6-methoxy-7-[4-(4-morpholinylmethyl)phenyl]-3-quinolinecarbonitrile] |  | 1590 nM and 1490 nM
COc1cc(Nc2c(C#N)cnc3cc(-c4cccc(CCN5CCOCC5)c4)c(OC)cc23)c(Cl)cc1Cl [Example 38, 4-(2,4-Dichloro-5-methoxyanilino)-6-methoxy-7-{3-[2-(4-morpholinyl)ethyl]phenyl}-3-quinolinecarbonitrile] |  | 12700 nM and 10600 nM
COc1cc(Nc2c(C#N)cnc3cc(C#Cc4ccccc4)ccc23)c(Cl)cc1Cl [Example 140, 4-(2,4-Dichloro-5-methoxyanilino)-7-(2-phenylethynyl)-3-quinolinecarbonitrile] |  | > 10000 nM
COc1cc(Nc2c(C#N)cnc3cc(-c4cccc(CN5CCN(C)CC5)c4)ccc23)c(Cl)cc1Cl [Example 113, 4-(2,4-dichloro-5-methoxyanilino)-7-{3-[(4-methyl-1-piperazinyl)methyl]phenyl}-3-quinolinecarbonitrile] |  | 1400 nM
COc1cc(Nc2c(C#N)cnc3cc(-c4ccc(CN5CCCCC5)s4)ccc23)c(Cl)cc1Cl [Example 78, 4-(2,4-Dichloro-5-methoxyanilino)-7-[5-(1-piperidinylmethyl)-2-thienyl]-3-quinolinecarbonitrile] |  | 140 nM
COc1cc(Nc2c(C#N)cnc3cc(-c4ccc(CN5CCOCC5)s4)ccc23)c(Cl)cc1Cl [Example 23, 4-(2,4-Dichloro-5-methoxyanilino)-7-[5-(4-morpholinylmethyl)-2-thienyl]-3-quinolinecarbonitrile] |  | 90 nM
CCN1CCN(CCc2ccc(-c3ccc4c(Nc5cc(OC)c(Cl)cc5Cl)c(C#N)cnc4c3)cc2)CC1 [Example 32, 4-(2,4-Dichloro-5-methoxyanilino)-7-{4-[2-(4-ethyl-1-piperazinyl)ethyl]phenyl}-3-quinolinecarbonitrile] |  | 2000 nM and 1900 nM
